Measured values reported in paper PMC4595200 (BMC Plant Biology, 2015).

Target: T1, truncated AtAPC2 (N-terminally truncated AtAPC2) (Arabidopsis thaliana, UniProt Q9FI43)
T1 construct: gene APC2; transmembrane carrier domain from residue 164 to C-terminus, EF-hand N-terminal domain removed, N-terminal His tag (pET16b), E. coli Rosetta 2 inclusion bodies, reconstituted in liposomes
T1 sequence (Q9FI43 164-487): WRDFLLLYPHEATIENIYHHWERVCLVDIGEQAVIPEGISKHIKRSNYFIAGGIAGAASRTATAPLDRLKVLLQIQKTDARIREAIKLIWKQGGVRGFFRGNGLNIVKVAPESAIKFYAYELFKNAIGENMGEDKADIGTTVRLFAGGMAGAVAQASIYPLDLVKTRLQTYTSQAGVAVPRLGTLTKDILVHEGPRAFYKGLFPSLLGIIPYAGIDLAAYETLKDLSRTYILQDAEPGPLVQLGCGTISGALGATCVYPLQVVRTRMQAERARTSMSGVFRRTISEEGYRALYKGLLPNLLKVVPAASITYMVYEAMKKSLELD
Assay: radiolabelled uptake into proteoliposomes
Assay type: biochemical
Conditions: pH 7.5, 30 °C, labelled compound

In the case of `Nc1ncnc2c1ncn2[C@@H]1O[C@H](COP(=O)(O)OP(=O)(O)O)[C@@H](O)[C@H]1O` [ADP], the “radiolabelled uptake into proteoliposomes” value (ADP import / ATP export (ATP-loaded), 5 min) is reported as “ADP/ATP exchange of both, full-length and truncated, AtAPC2 variants remained more or less unaltered”.

For `Nc1ncnc2c1ncn2[C@@H]1O[C@H](COP(=O)(O)OP(=O)(O)OP(=O)(O)O)[C@@H](O)[C@H]1O` [ATP], the “radiolabelled uptake into proteoliposomes” value (ATP import / Pi export (Pi-loaded), 50 μM ATP) was “ATP uptake measurements verified that truncated AtAPC2 is functional”.
